Data taken from ChEMBL document CHEMBL1131849, “Synthesis and biological characterization of sqbazide, a novel biotinylated photoaffinity probe for the study of the human platelet thromboxane A2 receptor” (Bioorg Med Chem Lett, 1999).
Active and inactive are the calls of the source. The calls are words filed in the database; no cut-off is given here.

Experiments:
[1] = organism: Homo sapiens; experiment: Tested for inhibition of platelet aggregation induced by A-23187; Inactive; type: functional, organism-based
[2] = organism: Homo sapiens; experiment: Tested for inhibition of platelet aggregation induced by ADP; Inactive; type: functional, organism-based
[3] = organism: Homo sapiens; experiment: Inhibitory activity against human platelet aggregation.; type: functional, organism-based
[4] = biological target: T1, Thromboxane A2 receptor (Homo sapiens, UniProt P21731); experiment: Binding affinity to human platelet TXA2 receptors as ability to displace binding [3H]SQ-29,548
T1 sequence (P21731 whole entry): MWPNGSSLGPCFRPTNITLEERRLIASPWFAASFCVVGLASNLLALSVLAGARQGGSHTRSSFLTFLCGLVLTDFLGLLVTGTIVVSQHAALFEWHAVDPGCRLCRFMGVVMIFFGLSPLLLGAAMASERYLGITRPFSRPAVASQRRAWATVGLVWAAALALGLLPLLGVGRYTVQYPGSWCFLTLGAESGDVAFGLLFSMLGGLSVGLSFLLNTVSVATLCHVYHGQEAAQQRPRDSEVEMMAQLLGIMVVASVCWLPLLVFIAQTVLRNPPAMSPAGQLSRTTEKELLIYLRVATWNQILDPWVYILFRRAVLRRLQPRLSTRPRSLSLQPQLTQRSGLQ

## [N-]=[N+]=Nc1ccc(CCCC(=O)NCC(=O)NCC2C3CCC(O3)C2C/C=C\CCCC(=O)NNC(=O)CCCC[C@H]2SC[C@H]3NC(=O)N[C@H]32)cc1 (some centres undefined)
[1]
  Activity: inactive
[2]
  Activity: inactive
[3]
  IC50: 500 nM
[4]
  Ki: 625 nM
